Measurements reported in article PMC3429506, “Screening for Novel LRRK2 Inhibitors Using a High-Throughput TR-FRET Cellular Assay for LRRK2 Ser935 Phosphorylation” (PLoS ONE, 2012).
“And” between values parts separate entries of the source, which are not always exact repeats. Identical values can stand only once. Like-named read-outs stand apart in the source and are kept apart here.

What was measured:
[1] = molecular target: T1, LRRK2 G2019S (Homo sapiens, UniProt Q5S007, G2019S); assay: TR-FRET cellular assay for LRRK2 Ser935 phosphorylation, SH-SY5Y cells, BacMam LRRK2-GFP G2019S (incl. Tocriscreen Mini library screen and follow-up); format: cell-based; parameters: This high-throughput assay utilizes cells expressing full-length human LRRK2 with a C-terminal GFP tag (LRRK2-GFP); host or cells: SH-SY5Y cells transduced with BacMam; settings: for %Inhibition Initial screen / dephosphorylation of Ser935 in library screen: 20 µM; for Cellular TR-FRET Assay Max % Inhibition / IC50: dose-response follow-up; for Cellular TR-FRET Assay Max % Inhibition: 90 min; for IC50: three independent experiments, read-out: Cellular TR-FRET Assay IC50 +/-SD; for dephosphorylation of Ser935 in library screen: Tocriscreen library
T1 sequence (Q5S007 whole entry G2019S): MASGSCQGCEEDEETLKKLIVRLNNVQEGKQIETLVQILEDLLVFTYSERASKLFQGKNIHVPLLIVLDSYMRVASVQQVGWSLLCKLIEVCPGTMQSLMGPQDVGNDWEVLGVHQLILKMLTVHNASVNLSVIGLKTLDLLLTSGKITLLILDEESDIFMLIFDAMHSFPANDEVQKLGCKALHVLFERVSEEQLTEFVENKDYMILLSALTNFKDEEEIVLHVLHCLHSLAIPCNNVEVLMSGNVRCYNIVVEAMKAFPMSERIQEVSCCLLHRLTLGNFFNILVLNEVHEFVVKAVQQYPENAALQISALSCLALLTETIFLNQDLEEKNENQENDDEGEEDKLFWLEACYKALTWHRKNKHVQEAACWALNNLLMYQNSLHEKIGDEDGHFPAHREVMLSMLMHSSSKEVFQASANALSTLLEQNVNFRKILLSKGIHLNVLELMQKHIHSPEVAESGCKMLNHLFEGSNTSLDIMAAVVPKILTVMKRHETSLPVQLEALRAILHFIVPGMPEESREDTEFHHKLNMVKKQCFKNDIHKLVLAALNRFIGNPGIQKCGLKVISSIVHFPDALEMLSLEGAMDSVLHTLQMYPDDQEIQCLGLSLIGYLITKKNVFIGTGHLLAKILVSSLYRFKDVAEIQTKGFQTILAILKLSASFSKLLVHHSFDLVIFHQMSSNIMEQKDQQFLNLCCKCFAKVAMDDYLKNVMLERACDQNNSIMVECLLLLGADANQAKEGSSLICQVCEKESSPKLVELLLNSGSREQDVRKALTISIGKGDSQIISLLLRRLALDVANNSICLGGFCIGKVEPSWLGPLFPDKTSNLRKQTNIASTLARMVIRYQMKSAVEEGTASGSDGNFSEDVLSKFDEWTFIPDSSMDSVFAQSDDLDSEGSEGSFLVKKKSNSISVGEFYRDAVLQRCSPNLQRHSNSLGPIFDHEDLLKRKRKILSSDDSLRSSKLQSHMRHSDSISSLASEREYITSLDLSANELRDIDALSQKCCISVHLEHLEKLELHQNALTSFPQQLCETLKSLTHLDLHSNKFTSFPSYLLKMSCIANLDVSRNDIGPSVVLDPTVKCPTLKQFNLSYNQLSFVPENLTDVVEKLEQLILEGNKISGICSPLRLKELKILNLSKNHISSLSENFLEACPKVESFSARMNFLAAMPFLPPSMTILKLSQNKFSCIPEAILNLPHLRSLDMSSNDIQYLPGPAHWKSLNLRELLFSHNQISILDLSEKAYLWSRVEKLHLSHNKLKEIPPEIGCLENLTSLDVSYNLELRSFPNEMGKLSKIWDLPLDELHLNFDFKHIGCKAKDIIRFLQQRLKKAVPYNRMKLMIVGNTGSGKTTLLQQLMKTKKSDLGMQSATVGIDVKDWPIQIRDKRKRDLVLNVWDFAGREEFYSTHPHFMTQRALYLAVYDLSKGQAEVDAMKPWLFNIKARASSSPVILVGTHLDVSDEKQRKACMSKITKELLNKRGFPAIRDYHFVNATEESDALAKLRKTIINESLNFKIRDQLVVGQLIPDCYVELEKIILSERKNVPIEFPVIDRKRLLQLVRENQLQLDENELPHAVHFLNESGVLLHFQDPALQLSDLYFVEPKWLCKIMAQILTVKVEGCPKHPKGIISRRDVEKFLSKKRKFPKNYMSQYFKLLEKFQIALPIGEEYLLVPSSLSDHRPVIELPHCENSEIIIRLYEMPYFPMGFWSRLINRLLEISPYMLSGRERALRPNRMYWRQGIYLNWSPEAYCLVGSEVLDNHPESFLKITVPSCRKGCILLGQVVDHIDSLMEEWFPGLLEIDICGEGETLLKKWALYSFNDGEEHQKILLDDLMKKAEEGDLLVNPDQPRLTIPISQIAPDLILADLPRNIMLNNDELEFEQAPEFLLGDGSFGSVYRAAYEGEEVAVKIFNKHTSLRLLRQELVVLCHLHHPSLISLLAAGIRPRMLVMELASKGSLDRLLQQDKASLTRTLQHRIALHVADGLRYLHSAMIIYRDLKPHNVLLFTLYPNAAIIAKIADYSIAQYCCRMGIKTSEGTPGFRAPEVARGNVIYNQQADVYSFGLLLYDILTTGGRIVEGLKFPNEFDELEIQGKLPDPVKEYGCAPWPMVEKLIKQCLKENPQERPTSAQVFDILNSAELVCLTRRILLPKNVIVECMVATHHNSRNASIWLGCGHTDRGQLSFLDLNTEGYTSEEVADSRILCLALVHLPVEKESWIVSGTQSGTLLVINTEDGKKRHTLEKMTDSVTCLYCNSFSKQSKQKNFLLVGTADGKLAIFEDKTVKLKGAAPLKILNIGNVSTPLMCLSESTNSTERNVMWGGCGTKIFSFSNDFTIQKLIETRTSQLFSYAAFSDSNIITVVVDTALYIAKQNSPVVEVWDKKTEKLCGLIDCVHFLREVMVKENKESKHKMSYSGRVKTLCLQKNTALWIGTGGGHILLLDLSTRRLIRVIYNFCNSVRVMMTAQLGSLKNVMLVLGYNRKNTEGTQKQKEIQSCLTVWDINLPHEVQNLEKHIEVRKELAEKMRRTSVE
Method: U-2 OS cells are maintained in growth medium (McCoy’s 5A supplemented with 10% dialyzed FBS (dFBS), 10 mM HEPES, 0.1 mM NEAA, 1 mM Sodium Pyruvate, and 100 U/mL Penicillin/100 µg/mL Streptomycin). HEK293T cells are maintained in DMEM with 10% dFBS, 10 mM HEPES, 0.1 mM NEAA and 100 U/mL Penicillin/100 µg/mL Streptomycin. SH-SY5Y cells are maintained in DMEM/F-12 medium supplemented with 10% dFBS and 100 U/mL Penicillin/100 µg/mL Streptomycin. […] GIBCO® human neural stem cells (hNSCs) were propagated as an adherent culture in StemPro® NSC SFM according to the manufacturer’s recommended protocol (Life Technologies). For BacMam transduction of U-2 OS and HEK293T, cells were harvested, mixed with various amounts of BacMam LRRK2-GFP reagent (v/v) and plated onto 6-well plates. […] Cells were assayed in 384-well format (∼20,000 cells/well) 48 hours post-transduction as above.
Transduced cells in the 384-well assay plate were incubated with indicated inhibitors (5X, 5 µL/well) for 60 to 90 minutes. During this time, 6 X lysis buffer (Life Technologies) was supplemented with 30 nM Tb-labeled anti-LRRK2 pSer935 antibody and both protease and phosphatase inhibitor cocktails (Sigma). The complete 6 X lysis buffer was added to each well (5 µL/well) and the plates were incubated at room temperature in the dark for 2 hours. […] A sigmoidal dose-response equation with varying slope was used to fit the data and generate IC50 values. Z′-factor values were calculated as: Z′-factor = 1 - [(3 × stdevno virus +3 × stdevmaxvirus)/(avgmaxvirus – avgno-virus)]. The IC50 values reported in Table 1 are the averaged numbers from three independent experiments.
40 nL of 10 mM Tocris library compounds in DMSO were dispensed into each well of the assay plate by the ECHO system. Equal volumes of DMSO were dispensed into the control wells. Cells were incubated with compounds for 90 to 120 min prior to cell lysis and detection as described above. The percent inhibition is calculated as: [(average emission ratios of DMSO control wells – average emission ratios of compound wells)/(average emission ratios of DMSO control wells – average emission ratios of LRRK2-IN-1 treated wells)] * 100. For the dose-response follow-up studies, fresh compound DMSO stock solutions were prepared from powder. […] Z′-factor value was calculated as: Z′-factor = 1 - [(3 × stdevLRRK2-IN-1+3 × stdevDMSO)/(avgDMSO – avgLRRK2-IN-1)]. The IC50 values reported in Table 2 are the averaged numbers from three independent experiments for both cellular and biochemical TR-FRET assays and one representative result of two independent experiments for the cytotoxicity assay.

[2] = test system: SH-SY5Y cells expressing LRRK2-GFP G2019S
[3] = molecular target: T1, LRRK2 G2019S; assay: In vitro biochemical LRRK2 TR-FRET activity assay; settings: for IC50: LRRK2 G2019S, ATP 134 µM (Km,app), LRRKtide substrate, three independent experiments, read-out: Biochemical LRRK2 assay IC50 +/- SD; for effect on LRRK2 activity in vitro: result in words
Method: The Biochemical LRRK2 TR-FRET activity assay was performed according to the manufacture recommended assay protocol (Life Technologies). […] After incubation at room temperature for 1 hour, the kinase reactions were stopped by addition of 10 µL of 20 mM EDTA and 4 nM Tb-anti-pERM (pLRRKtide) antibody in TR-FRET dilution buffer (Life Technologies). After a 30 minute incubation at room temperature, TR-FRET measurements were obtained on a BMG PHERAstar plate reader using LanthaScreen® filters and settings. A 16 point, 2-fold dilution series of each compound was tested in triplicate at each concentration and assays were also performed in triplicate.

[4] = molecular target: T2, GFP-LRRK2 G2019S (Homo sapiens, UniProt Q5S007, G2019S); assay: Immunoprecipitation/Western analysis of LRRK2 phosphorylation at Ser910, Ser935, Ser955, Ser973 in HEK293 T-REx GFP-LRRK2 G2019S cells; format: cell-based; settings: for effect on phosphorylation of Ser910, Ser935, Ser955 and Ser973 (IP-Western): 20 µM, 90 min, HEK293 GFP-LRRK2 G2019S, Figure 6
T2 construct: expressed in transfected cells
T2 sequence (Q5S007 whole entry G2019S): as above
Method: (§1) Immunoblot analysis: BacMam LRRK2-GFP transduced U-2 OS or SH-SY5Y cells (10^7 cells) were left untreated or treated with 3 µM LRRK2-IN-I for 90 min. For lysate preparation, the cells were washed once with ice-cold PBS and lysed by addition of ice-cold lysis buffer (20 mM Tris-HCl, pH 7.4, 1% NP-40, 5 mM EDTA, 5 mM NaF, 150 mM NaCl, and 1∶100 of protease and phosphatase inhibitor cocktails). The lysate was cleared of debris by centrifugation. Equal amount of total protein was loaded onto each lane for SDS-PAGE (3–8% Tris Acetate). The proteins were transferred onto nitrocellulose membrane using the iBLOT® dry blotting system (Life Technologies) according to manufacturer’s protocol. The membranes were blocked and incubated with a primary antibody against LRRK2 (Cell Signaling Technologies), followed by incubation with alkaline phosphatase-conjugated secondary antibody (WesternBreeze® chromogenic Kit, Life Technologies). The blot was developed by using the chromogenic BCIP/NBT substrate (WesternBreeze® chromogenic Kit, Life Technologies). […] Two days post induction, cells were treated for 90 minutes in the presence of 20 µM of compound or DMSO vehicle control. Cells were rapidly lysed in ice cold lysis buffer 50 mM Tris/HCl, pH 7.5, 1 mM EGTA, 1 mM EDTA, […] 1 mM sodium orthovanadate, 10 mM sodium beta-glycerolphosphate, 50 mM NaF, 5 mM sodium pyrophosphate, 0.27 M sucrose, 1 mM benzamidine and 2 mM phenylmethanesulphonylfluoride (PMSF) and one tablet each complete protease inhibitor and PhosSTOP phosphatase inhibitor (Roche) and was supplemented with 1% (v/v) Triton X-100. GFP-LRRK2 was immunoprecipitated with GFP nanotrap beads (ChromoTek). Immunecomplexes were washed twice with lysis buffer supplemented with 300 mM NaCl and once with Buffer A (50 mM Tris/HCl, pH 7.5, 50 mM NaCl, 0.1 mM EGTA and 0.1% (v/v) 2-mercaptoethanol, and 0.27 M sucrose).

[5] = test system: SH-SY5Y cells expressing LRRK2-GFP G2019S; assay: Cytotoxicity assay (resazurin-based cell viability); settings: read-out: Cytotoxicity Assay IC50; same conditions as TR-FRET follow-up; one representative of two experiments
[6] = molecular target: T3, LRRK2 A2016T/G2019S (Homo sapiens, UniProt Q5S007, A2016T/G2019S); assay: Immunoprecipitation/Western analysis of LRRK2 phosphorylation in T-REx HEK293 cells expressing inhibitor desensitizing mutant; format: cell-based; settings: for effect of desensitizing mutation A2016T/G2019S on compound-induced dephosphorylation (IP-Western): 20 µM, Figure 6 IRM
T3 construct: expressed in transfected cells
T3 sequence (Q5S007 whole entry A2016T/G2019S): as the sequence (Q5S007 whole entry G2019S) above, with A2016T counted along it
Method: as §1

[7] = Tocriscreen Mini library screen, SH-SY5Y G2019S, relative to LRRK2-IN-1 control

Row | SMILES | %Inhibition Initial screen [1, 7] | IC50 [2] | Cellular TR-FRET Assay Max % Inhibition ([1]; SH-SY5Y G2019S) | IC50 ([1]; SH-SY5Y G2019S) | IC50 [3] | effect on phosphorylation of Ser910, Ser935, Ser955 and Ser973 (IP-Western) [4] | other results
1 | O=C(CCCN1CCC2(CC1)C(=O)N(Cc1cccc(F)c1)CN2c1ccccc1)c1ccc(F)cc1.O=C(O)/C=C\C(=O)O [3′-fluorobenzylspiperone maleate] | 53% | – | – | – | – | – | –
2 | CC(C)[C@H](CO)Nc1nc(Nc2cc(N)cc(Cl)c2)c2ncn(C(C)C)c2n1 [Aminopurvalanol A] | 56.2% | > 20 µM | 50% | 1.4 µM | – | – | –
3 | O=C(O)/C=C\C(=O)O.O=C1/C(=C/c2ccccc2)C[C@@]2(O)[C@H]3Cc4ccc(O)c5c4[C@@]2(CCN3CC2CC2)[C@H]1O5 [BNTX maleate] | – | – | 88% | 4 µM | > 100 µM | moderately reduced phosphorylation of all four residues | effect on LRRK2 activity in vitro [3]: did not repress LRRK2 activity in vitro; IC50 [5]: > 20 µM; %Inhibition Initial screen [1]: 70% and 69.7%
4 | O=C(NCCCNc1nc(Nc2cccc(NC(=O)N3CCCC3)c2)ncc1I)c1cccs1 [BX-795] | – | – | – | – | – | inhibited LRRK2 cellular phosphorylation | effect of desensitizing mutation A2016T/G2019S on compound-induced dephosphorylation (IP-Western) [6]: rescued phosphorylation
5 | CC(C)(C)c1ccc(S(=O)(=O)/C=C/C#N)cc1 [Bay 11-7085] | 97.5% | > 20 µM | 100% | 5.3 µM | > 100 µM | moderately reduced phosphorylation of all four residues | effect on LRRK2 activity in vitro [3]: did not repress LRRK2 activity in vitro; LRRK2 phosphorylation remaining, % of untreated G2019S ([4]; 293 cells, LRRK2 G2019S): 50%; effect of desensitizing mutation A2016T/G2019S on compound-induced dephosphorylation (IP-Western) [6]: did not appear to be changed; LRRK2 phosphorylation remaining, % of untreated G2019S ([6]; 293 cells, LRRK2 G2019S/A2016T): 50%
6 | Nc1nc(Nc2ccccc2)nc2c1ncn2[C@@H]1O[C@H](CO)[C@@H](O)[C@H]1O [CV1808] | 55% | – | – | – | – | – | –
7 | CN(C)CCCn1cc(C2=C(c3c[nH]c4ccccc34)C(=O)NC2=O)c2ccccc21 [GF109203X] | – | – | – | – | – | – | dephosphorylation of Ser935 in library screen ([1]; SH-SY5Y G2019S): did not observe in vivo dephosphorylation of Ser935
8 | O=C(c1ccc(Nc2nccc(-c3cc4ccccc4s3)n2)cc1)N1CCC(N2CCCC2)CC1 [IKK 16] | 81.7% | > 20 µM | 82% | 1.3 µM | 0.05 µM | inhibited phosphorylation of Ser910, Ser935, Ser955 and Ser973 | effect of desensitizing mutation A2016T/G2019S on compound-induced dephosphorylation (IP-Western) [6]: rescued phosphorylation
9 | CCc1ccc(OCc2ccccc2C(=O)Nc2ccc3nc(C)cc(N)c3c2)cc1 [JTC 801] | 90.1% | 10 µM | 84% | 9.6 µM | > 100 µM | moderately reduced phosphorylation of all four residues | effect on LRRK2 activity in vitro [3]: did not repress LRRK2 activity in vitro; %Inhibition Initial screen ([1]; Tocriscreen Mini library screen, SH-SY5Y G2019S, relative to LRRK2-IN-1 control, listed as JTC801, 20 µM): 90%
10 | O=C1C(SCCO)=C(SCCO)C(=O)c2ccccc21 [NSC 95397] | 76.1% | – | 80% | 1.3 µM | 15 µM | moderately reduced phosphorylation of all four residues | IC50 [5]: 7.8 µM
11 | O=C1C(Cl)=C(NCCN2CCOCC2)C(=O)c2ncccc21 [NSC 663284] | 59.1% | 2 µM | 45% | 5.8 µM | 0.48 µM | – | –
12 | Cn1cc(C2=C(c3cn(CCCSC(=N)N)c4ccccc34)C(=O)NC2=O)c2ccccc21 [Ro31-8220] | – | – | – | – | – | – | dephosphorylation of Ser935 in library screen ([1]; SH-SY5Y G2019S): did not observe in vivo dephosphorylation of Ser935
13 | [O-][S+](c1ccccc1)c1ccc2nnnn2n1 (stereo not shown) [Ro 106-9920] | 69.8% | 20 µM | 76% | 7.6 µM | > 100 µM | – | effect on LRRK2 activity in vitro [3]: did not repress LRRK2 activity in vitro; suppression of LRRK2 phosphorylation on Ser935 ([4]; HEK293 cells): approximately 50%
14 | O=C1NC(=O)c2c1c1c3ccccc3n3c1c1c2c2ccccc2n1C1CCC3O1 [SB 218078] | 55.3% | – | 54% | 9.5 µM | – | moderately reduced phosphorylation of all four residues | effect of desensitizing mutation A2016T/G2019S on compound-induced dephosphorylation (IP-Western) [6]: did not appear to be changed; IC50 [5]: > 20 µM
15 | NC(=O)Nc1sc(-c2ccc(F)cc2)cc1C(N)=O [TPCA-1] | 54.8% | – | 50% | 0.1 µM | – | – | IC50 [5]: > 20 µM
16 | C[C@@H](N)[C@H]1CC[C@H](C(=O)Nc2ccncc2)CC1 [Y-27632] | 67.3% | > 20 µM | 69% | – | – | – | –
